Experiments:
KDM4A = molecular target: T1, KDM4A (Homo sapiens, UniProt O75164); experiment: KDM4A Assay (SAMDI mass spectrometry demethylase assay); assay type: biochemical; conditions: N-terminal His-tagged KDM4A 1-350; class symbols; read-out: 4A IC50
T1 construct: N-terminal His-tagged KDM4A^1-350 was purchased from BPS Biosciences; His (N); purchased BPS Biosciences
T1 sequence (O75164 1-350): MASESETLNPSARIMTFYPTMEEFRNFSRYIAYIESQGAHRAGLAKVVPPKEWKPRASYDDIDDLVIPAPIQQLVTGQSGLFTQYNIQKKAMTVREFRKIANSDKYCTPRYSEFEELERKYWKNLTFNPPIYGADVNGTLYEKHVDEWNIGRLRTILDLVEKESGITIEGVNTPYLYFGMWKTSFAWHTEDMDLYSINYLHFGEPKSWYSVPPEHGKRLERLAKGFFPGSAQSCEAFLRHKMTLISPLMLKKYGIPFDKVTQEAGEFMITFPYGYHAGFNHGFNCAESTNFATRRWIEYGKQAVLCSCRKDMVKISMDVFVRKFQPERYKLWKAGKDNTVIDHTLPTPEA
Method: N-terminal His-tagged KDM4A^1-350 was purchased from BPS Biosciences. Peptides were synthesized by BioPeptide and all other reagents were purchased from Sigma-Aldrich at the highest level of purity possible. Assays were performed in a 50 μL volume in 384-well V-bottom polypropylene microplates (Greiner) at 25° C. Optimized 1× assay buffer was 50 mM HEPES (pH=8.0), 100 μM sodium ascorbate, 20 mM NaCl, 10 μM ammonium iron sulfate, 1 mM tris(2-carboxyethyl)phosphine (TCEP), 0.002% Tween-20, and 0.005% BSG. For compound screening, 35 μL of KDM4A^1-350 (final concentration, f.c.=5 nM) was added using a Multidrop Combi and preincubated with 1 μL of test compound (f.c.=10 μM) for 30 minutes and subsequently 15 μL of peptide with the following sequence NH2-ARTKQTAR(Kme2)STGGKAPRKQLA(K-Ahx-Biotin)-amide (f.c.=600 nM) and 2-oxoglutarate (f.c.=5 μM) was added by Multidrop Combi to begin the reaction. Reactions proceeded for 120 minutes and were stopped by the addition of 5 μL of formic acid (f.c.=0.5%) using a Multidrop Combi and then analyzed by SAMDI Tech Inc.
SAMDI Tech analyzed all reactions using self-assembled monoloayer desorption/ionization technology as previously described (Gerard-Levin Z A, Scholle M D, Eisenberg A H, et al.: High-throughput screening of small molecule libraries using SAMDI mass spectrometry. ACS Comb Sci 2011; 13:347-350). Briefly, a 2 μL sample of the stopped demethylase reactions were transferred to a SAMDI array coated with 384 biotin-neutravidin spots using a 384-channel pipet station. The SAMDI arrays were incubated for 1 h in a humidified chamber, followed by washing of the surface with deionized ultra-filtered water (DIUF) and drying under nitrogen. A matrix of 30 mg/ml 2′,4′,6′-Trihydroxyacetophenone monohydrate (THAP) in acetone was applied using a TPP Mosquito 1.2 μL tip by dispensing 50 nL on each of the 384 spots on the array. SAMDI-MS was run using acquisition method ReflectorPositiveUTX. The % conversion of substrate to product was calculated using the AUC of the substrate and product peptide peaks.
An IC50 value was determined by contacting various concentrations of a test compound with one of the KDM4A, KDM4C or KDMSC enzyme constructs and plotting a dose-response curve which associates the amount of inhibition of the enzyme relative to the concentration of the test compound. From the curve, the IC50 value (which represents the concentration of the test compound necessary to inhibit maximal enzymatic activity by 50%) was determined. Additionally, the slope of the linear range of the plotted curve, which indicates the speed with which the curve rises between the minimum and maximum, was calculated.

KDM4C = molecular target: T2, KDM4C (Homo sapiens, UniProt Q9H3R0); experiment: KDM4C Assay (SAMDI mass spectrometry demethylase assay); assay type: biochemical; conditions: N-terminal GST-tagged KDM4C 2-372; class symbols; read-out: 4C IC50
T2 construct: N-terminal GST-tagged KDM4C^2-372 was purchased from BPS Biosciences; GST (N); purchased BPS Biosciences
T2 sequence (Q9H3R0 2-372): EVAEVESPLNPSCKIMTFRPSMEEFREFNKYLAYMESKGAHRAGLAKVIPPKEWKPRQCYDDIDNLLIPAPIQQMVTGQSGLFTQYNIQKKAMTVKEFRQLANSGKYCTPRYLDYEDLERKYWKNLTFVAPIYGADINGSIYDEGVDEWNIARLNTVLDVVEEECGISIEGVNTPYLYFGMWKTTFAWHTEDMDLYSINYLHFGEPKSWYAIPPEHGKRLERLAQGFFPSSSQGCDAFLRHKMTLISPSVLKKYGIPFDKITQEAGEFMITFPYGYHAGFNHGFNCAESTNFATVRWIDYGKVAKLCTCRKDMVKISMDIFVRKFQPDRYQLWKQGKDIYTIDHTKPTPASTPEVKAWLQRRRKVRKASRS
Outline: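 GST-tagged KDM4C 2-372 (5 nM) preincubated 30 min with compound, then H3K9me3 biotinylated peptide (500 nM) and 2-oxoglutarate (15 μM) added in HEPES pH 8.0 with ascorbate, Fe(II), TCEP; 150 min at 25 °C, formic-acid quench. Conversion by SAMDI mass spectrometry from substrate/product peak AUC; IC50 from dose-response.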

| SMILES | IC50 (KDM4A) [nM] | IC50 (KDM4C) [nM] |
| --- | --- | --- |
| CNC(=O)c1cccc(-n2ncc(Nc3cnccc3C(=O)O)c2C)c1 [Compound 59, 3-((5-methyl-1-(3-(methylcarbamoyl)phenyl)-1H-pyrazol-4-yl)amino) isonicotinic acid] | 1 to 100 | 1 to 100 |
| CN1CCN(CCn2ncc(-c3ccccc3)c2Nc2cnccc2C(=O)O)CC1 [Compound 35, 3-((1-(2-(4-methylpiperazin-1-yl)ethyl)-4-phenyl-1H-pyrazol-5-yl)amino)isonicotinic acid] | 100 to 1000 | 100 to 1000 |
| Cc1n[nH]c(-c2ccccc2)c1Nc1cnccc1C(=O)O [Compound 55, 3-((5-methyl-3-phenyl-1H-pyrazol-4-yl)amino)isonicotinic acid] | 1000 to 10000 | 1000 to 10000 |
| O=C(O)c1ccncc1Nc1c(-c2ccccc2)cnn1CCN1CCC(F)(F)CC1 [Compound 15, 3-((1-(2-(4,4-difluoropiperidin-1-yl)ethyl)-4-phenyl-1H-pyrazol-5-yl)amino)isonicotinic acid] | 10000 to 100000 | 10000 to 100000 |
| O=C(O)c1ccncc1Nc1c(-c2ccccc2)cnn1-c1ccccc1 [Compound 43, 3-((1,4-Diphenyl-1H-pyrazol-5-yl)amino)isonicotinic acid] | 10000 to 100000 | 10000 to 100000 |
| Cc1nn(C2CCN(C(=O)c3ccccc3)CC2)cc1Nc1cnccc1C(=O)O [Compound 97, 3-(1-(1-benzoylpiperidin-4-yl)-3-methyl-1H-pyrazol-4-ylamino) isonicotinic acid] | 1000 to 10000 | 1000 to 10000 |
| O=C(O)c1ccncc1Nc1nn(CCN2CCC(F)(F)CC2)cc1-c1ccc(F)cc1 [Compound 45, 3-((1-(2-(4,4-difluoropiperidin-1-yl)ethyl)-4-(4-fluorophenyl)-1H-pyrazol-3-yl)amino)isonicotinic acid] | 100 to 1000 | 100 to 1000 |
| O=C(O)c1ccncc1Nc1nn(CCN2CCC(F)(F)CC2)cc1C1CCCCC1 [Compound 57, 3-((4-cyclohexyl-1-(2-(4,4-difluoropiperidin-1-yl)ethyl)-1H-pyrazol-3-yl)amino)isonicotinic acid] | 100 to 1000 | 100 to 1000 |

Further lines, results first:

| IC50 (KDM4A) [nM] | IC50 (KDM4C) [nM] | SMILES |
| --- | --- | --- |
| 10000 to 100000 | 10000 to 100000 | COC(=O)c1ccncc1Nc1cn(C2CCN(C(C)C)CC2)nc1C [Compound 101, methyl 3-((1-(1-isopropylpiperidin-4-yl)-3-methyl-1H-pyrazol-4-yl)amino)isonicotinate] |
| 100 to 1000 | 100 to 1000 | Cc1c(Nc2cnccc2C(=O)O)cnn1C1CCN(C(C)C)CC1 [Compound 104] |
| 100 to 1000 | 1000 to 10000 | Cc1nn(CCN(C)C)cc1Nc1cnccc1C(=O)O [Compound 107, 3-(1-(2-(dimethylamino)ethyl)-3-methyl-1H-pyrazol-4-ylamino) isonicotinic acid] |
| 100 to 1000 | 100 to 1000 | COc1ccccc1-n1cc(C)c(Nc2cnccc2C(=O)O)n1 [Compound 63, 3-((1-(2-methoxyphenyl)-4-methyl-1H-pyrazol-3-yl)amino) isonicotinic acid] |
| 100 to 1000 | 100 to 1000 | O=C(O)c1ccncc1Nc1nn(CCC(F)(F)F)cc1-c1ccccc1 [Compound 73, 3-((4-phenyl-1-(3,3,3-trifluoropropyl)-1H-pyrazol-3-yl)amino) isonicotinic acid] |
| 1000 to 10000 | 10000 to 100000 | CN(C)CCCn1ncc(-c2ccccc2)c1Nc1cnccc1C(=O)O [Compound 52, 3-((1-(3-(dimethylamino)propyl)-4-phenyl-1H-pyrazol-5-yl)amino) isonicotinic acid] |
| 1000 to 10000 | 1000 to 10000 | Cn1cc(-c2ccccc2)c(Nc2cnccc2C(=O)O)n1 [Compound 3] |
| 100 to 1000 | 100 to 1000 | Cc1nn(C2CCCNCC2)cc1Nc1cnccc1C(=O)O (single isomer, unassigned) [Compound 114] |
| 100 to 1000 | 1000 to 10000 | Cc1nn(C2CCN(CC(F)(F)F)CC2)cc1Nc1cnccc1C(=O)O [Compound 99, 3-(3-methyl-1-(1-(2,2,2-trifluoroethyl)piperidin-4-yl)-1H-pyrazol-4-ylamino)isonicotinic acid] |

— US20170291890A1 (Epizyme, Inc., priority 2014, published 2017)
